Values of other authors, collected in patent US20160346319A1, “NO/HE GAS MIXTURE WITH BA[…]” (AIR LIQUIDE SANTE (INTERNATIONAL), priority 2014, published 2016).

Test system: bacteria
Conditions: high dose, certain publications

[N]=O [NO, nitric oxide]
dose of NO showing an antibacterial effect: at least 150 ppm by volume
